Results reported in PMC9025941, “Influence of the Type of Amino Acid on the Permeability and Properties of Ibuprofenates of Isopropyl Amino Acid Esters” (International Journal of Molecular Sciences, 2022).
Several values for one entry are separate records, joined by “and”; a condition that tells them apart may be missing. Equal entries are not always repeated. Where two headings read alike, the source gives them in different places. Marks after values point to notes of the source that are not given here.

Key:
[1] = Thermal stability (TG/DTG): decomposition onset and maximum mass-loss rate temperature
Procedure: In Figure 5, the thermal stability of ibuprofen and amino acid isopropyl ester ibuprofenates was determined and compared. All TG, DTG, and c-DTA curves are in the Supplementary Materials (Figures S87–S100). The decomposition onset temperature (Tonset) and the temperature of the maximum rate of mass loss (Tmax) were determined.

[2] = In vitro skin permeation, Franz diffusion cells; conditions: for Q%24 h, the percentage of the applied dose permeated after 24 h / Cumulative Permeation Mass / LT, lag time: n = 3; for Q%24 h, the percentage of the applied dose permeated after 24 h / Cumulative Permeation Mass: 24 h; for EF, enhancement factor: relative to IBU; for JSS, steady-state flux: saturated solution in PBS pH 7.4, n = 3
[3] = Solubility in organic solvents by modified Vogel's method; conditions: 25 °C
[4] = n-octanol-water partition coefficient, shake flask method; conditions: shake flask, 25 °C
[5] = Solubility (saturation concentration) in deionised water and PBS pH 7.4, HPLC; conditions: for Solubility in Phosphate Buffer pH = 7.4: PBS pH 7.4, 32 °C; for Solubility in Water: 25 °C
[6] = 24 h penetration, n = 3
[7] = saturated solution in PBS pH 7.4, mass of compound
[8] = saturated solution in PBS pH 7.4, mass of ibuprofen

SMILES	Tonset, the onset temperature of the thermal degradation [1]	Q%24 h, the percentage of the applied dose permeated after 24 h [2]	Cumulative Permeation Mass [2, 7]	Cumulative Permeation Mass [2, 8]	LT, lag time [2]	EF, enhancement factor [2]	JSS, steady-state flux [2]	Solubility in DMSO [3]	Solubility in chloroform [3]	Solubility in dichloromethane [3]	Solubility in diethyl ether [3]	Solubility in ethanol [3]	Solubility in ethyl acetate [3]	Solubility in n-hexane [3]	Solubility in toluene [3]	Log P (n-octanol-water partition coefficient) [4]	Solubility in Phosphate Buffer pH = 7.4 ([5]; g of active compound (IBU))	Solubility in Phosphate Buffer pH = 7.4 ([5]; g of compound)	Solubility in Water ([5]; g of active compound (IBU))	Solubility in Water ([5]; g of compound)	other results
CC(C)Cc1ccc(C(C)C(=O)O)cc1.CC(C)OC(=O)[C@H](C)N [[L-AlaOiPr][IBU], L-alanine isopropyl ester ibuprofenate]	78.3 °C	6.786 ± 0.214%	572.719 ± 18.05 ^b µg·cm^−2	350.100 ± 11.039 ^b µg IBU·cm^−2	1.691 ± 0.041 h	0.92	44.510 ± 0.861 µg IBU cm^−2 h^−1	+ (soluble >100 mg cm^−3)	+ (soluble >100 mg cm^−3)	+ (soluble >100 mg cm^−3)	+/− (partially soluble 33–100 mg cm^−3)	+ (soluble >100 mg cm^−3)	+ (soluble >100 mg cm^−3)	− (insoluble <33 mg cm^−3)	+ (soluble >100 mg cm^−3)	0.719 ± 0.004	5.159 ± 0.015 g IBU∙dm^−3	8.440 ± 0.024 g∙dm^−3	2.463 ± 0.008 g IBU∙dm^−3	4.030 ± 0.014 g∙dm^−3	
CC(C)Cc1ccc(C(C)C(=O)O)cc1.CC(C)OC(=O)[C@@H](N)CS [[L-CysOiPr][IBU], L-cysteine isopropyl ester ibuprofenate]	190.2 °C	12.210 ± 1.119%	541.776 ± 49.664 ^b µg·cm^−2	305.756 ± 28.028 ^b µg IBU·cm^−2	1.873 ± 0.104 h	1.65	28.858 ± 2.984 µg IBU cm^−2 h^−1	+ (soluble >100 mg cm^−3)	+ (soluble >100 mg cm^−3)	+ (soluble >100 mg cm^−3)		+ (soluble >100 mg cm^−3)	+/− (partially soluble 33–100 mg cm^−3)	− (insoluble <33 mg cm^−3)		1.430 ± 0.005	2.440 ± 0.287 g IBU∙dm^−3	4.437 ± 0.287 g∙dm^−3	1.143 ± 0.253 g IBU∙dm^−3	2.048 ± 0.253 g∙dm^−3	
CC(C)C[C@H](N)C(=O)OC(C)C.CC(C)Cc1ccc(C(C)C(=O)O)cc1 [[L-LeuOiPr][IBU], L-leucine isopropyl ester ibuprofenate]	109.5 °C	11.077 ± 0.236%	424.683 ± 9.060 ^b µg·cm^−2	230.824 ± 4.924 ^b µg IBU·cm^−2	1.742 ± 0.061 h	1.50	38.502 ± 1.553 µg IBU cm^−2 h^−1	+ (soluble >100 mg cm^−3)	+ (soluble >100 mg cm^−3)	+ (soluble >100 mg cm^−3)	+/− (partially soluble 33–100 mg cm^−3)	+ (soluble >100 mg cm^−3)	+ (soluble >100 mg cm^−3)	− (insoluble <33 mg cm^−3)	+ (soluble >100 mg cm^−3)	1.391 ± 0.001	2.084 ± 0.002 g IBU∙dm^−3	3.834 ± 0.003 g∙dm^−3	0.682 ± 0.038 g IBU∙dm^−3	1.255 ± 0.070 g∙dm^−3	
CC(C)Cc1ccc(C(C)C(=O)O)cc1.CC(C)Cc1ccc(C(C)C(=O)O)cc1.CC(C)OC(=O)[C@@H](N)CCCCN [[L-LysOiPr][IBU]2, L-lysine isopropyl ester bis(ibuprofenate)]		10.624 ± 0.474%	640.825 ± 28.577 ^b µg·cm^−2	220.016 ± 9.811 ^b µg IBU·cm^−2	1.333 ± 0.258 h	1.43	24.852 ± 2.857 µg IBU cm^−2 h^−1	+ (soluble >100 mg cm^−3)	− (insoluble <33 mg cm^−3)	− (insoluble <33 mg cm^−3)	− (insoluble <33 mg cm^−3)	+ (soluble >100 mg cm^−3)	− (insoluble <33 mg cm^−3)	− (insoluble <33 mg cm^−3)	− (insoluble <33 mg cm^−3)		2.071 ± 0.118 g IBU∙dm^−3	6.032 ± 0.342 g∙dm^−3	2.012 ± 0.110 g IBU∙dm^−3	5.861 ± 0.322 g∙dm^−3	Tonset, the onset temperature of the thermal degradation ([1]; TG): 183.7 °C; Accumulation in the skin [6]: 392.593 ± 111.434 µg IBU g^−1
CC(C)Cc1ccc(C(C)C(=O)O)cc1.CC(C)OC(=O)[C@@H](N)CCCCN [[L-LysOiPr][IBU], L-lysine isopropyl ester ibuprofenate]		11.062 ± 0.475%	1011.106 ± 43.448 ^b µg·cm^−2	528.643 ± 22.716 µg IBU·cm^−2 and 528.643 ± 22.716 ^b µg IBU·cm^−2	1.423 ± 0.130 h	1.49	56.801 ± 4.129 µg IBU cm^−2 h^−1	+ (soluble >100 mg cm^−3)	− (insoluble <33 mg cm^−3)	− (insoluble <33 mg cm^−3)	− (insoluble <33 mg cm^−3)	+ (soluble >100 mg cm^−3)	− (insoluble <33 mg cm^−3)	− (insoluble <33 mg cm^−3)	− (insoluble <33 mg cm^−3)		4.779 ± 0.061 g IBU∙dm^−3	9.140 ± 0.117 g∙dm^−3	5.047 ± 0.060 g IBU∙dm^−3	9.6534 ± 0.115 g∙dm^−3	Tonset, the onset temperature of the thermal degradation ([1]; TG): 177.9 °C
CC(C)Cc1ccc(C(C)C(=O)O)cc1.CC(C)OC(=O)[C@@H](N)Cc1ccccc1 [[L-PheOiPr][IBU], L-phenylalanine isopropyl ester ibuprofenate]	175.8 °C	35.912 ± 0.539%	711.866 ± 5.956 ^b µg·cm^−2	355.088 ± 5.482 ^b µg IBU·cm^−2	1.368 ± 0.091 h	4.85	48.578 ± 4.836 µg IBU cm^−2 h^−1	+ (soluble >100 mg cm^−3)	+ (soluble >100 mg cm^−3)	+ (soluble >100 mg cm^−3)	+/− (partially soluble 33–100 mg cm^−3)	+ (soluble >100 mg cm^−3)	+ (soluble >100 mg cm^−3)	− (insoluble <33 mg cm^−3)	+ (soluble >100 mg cm^−3)	2.207 ± 0.026	1.017 ± 0.001 g IBU∙dm^−3	2.039 ± 0.001 g∙dm^−3	0.297 ± 0.024 g IBU∙dm^−3	0.595 ± 0.048 g∙dm^−3	KP, times higher than for ibuprofen [2]: 6.839 times
